Data taken from patent US5760036A, “Aminediol protease inhibitors” (E. R. Squibb & Sons, Inc., priority 1995, dated 1998).
Where a name gives a salt, the structure may show the parent alone. Read-outs that look alike come from different tables or passages of the source.

Legend:
[1] = test system: RF strain of HIV (CEM-SS cells); experiment: Cell Culture Anti-HIV Activity (cell viability, formazan); format: cell-based; conditions: CEM-SS cells, RF strain of HIV, multiplicity of infection 0.04, 6 days at 37° C., 450 nm, read-out: HIV (CEM Cells) IC50
How it was run: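 Half-log compound dilutions added to CEM-SS cells (5000/well) carrying HIV RF (MOI 0.04), 6 days, 37° C. Cell protection measured as formazan from tetrazolium, A450. IC50: drug level restoring infected-cell formazan to 50% of the uninfected untreated control.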

[2] = target: T1, HIV protease (Human immunodeficiency virus type 1 group M subtype B, UniProt P04585); experiment: HIV Protease Assay; format: biochemical
T1 construct: and purified protease
How it was run: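 At a single final concentration of 10 μM (4% DMSO), inhibitors were added to a 30-minute, 37° C reaction of purified enzyme with 450 μM H2N-Val-Ser-Gln-Asn-(β-naphthyl-alanine)-Pro-Val-Ile-OH at pH 5.5 (sodium acetate, BSA). Hydrolysis was quantified by reverse-phase HPLC with 220 nm detection after acid quench.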

[3] = Human immunodeficiency virus 1, CEM-SS, 144 h
[4] = pH 5.5, 10 μM inhibitor, 4% DMSO, 450 μM substrate, pH 5.5, 30 minutes at 37° C., RP-HPLC, read-out: HIV Protease % Inhibition at 10 μM

inhibition at 10 µM [2, 4] | HIV Protease % Inhibition at 10 μM ([2]; 10 μM inhibitor, 4% DMSO, 450 μM substrate, pH 5.5, 30 minutes at 37° C., RP-HPLC) | inhibition at 10 µM ([2]; pH 5.5, read-out: HIV Protease % Inhibition at 10 μM) | SMILES | IC50 [1, 3] | IC50 [1]
99% |  |  | CC(C)(C)OC(=O)N[C@@H](Cc1ccccc1)[C@H](O)CNC[C@@H](O)[C@H](Cc1ccccc1)NC(=O)OC(C)(C)[C@@H](O)CO [Compound 227, [1S-(1R*,2S*),(R*)]-[Iminobis[2-hydroxy-1-(phenylmethyl)-3,1-propanediyl]]biscarbamic acid, 2,3-dihydroxy-1,1-dimethylpropyl 1,1-dimethylethyl ester] | 0.9 µM | 
95% |  |  | CC(C)(C)OC(=O)N[C@@H](Cc1ccccc1)[C@H](O)CNC[C@@H](O)[C@H](Cc1ccccc1)NC(=O)C(NC(=O)OCc1ccccc1)C(C)(C)O (single isomer, unassigned; isomer a) [Compound 301, [1S-[1R*,2S*(2S*,3R*)]]-[1-[[[3-[[(1,1-Dimethylethoxy)carbonyl]amino]-2-hydroxy-4-phenylbutyl]amino]-2-hydroxy-1-(phenylmethyl)propyl]amino]carbonyl]-2-hydroxy-2-methylpropyl]carbamic acid, phenylmethyl ester, isomer A] | 2.4 µM | 
99% |  |  | CC(C)(C)OC(=O)N[C@@H](Cc1ccccc1)[C@H](O)CNC[C@@H](O)[C@H](Cc1ccccc1)NC(=O)[C@@H](NC(=O)OCc1ncc(-c2ccccc2)o1)C(C)(C)C [Compound 347, [S-(1R*,2S*(2S*,3R*)]]-[2,2-Dimethyl-1-[[[3-[[3-[[1,1-dimethylethoxy)-carbonyl]amino]-2-hydroxy-4-phenylbutyl]amino]-2-hydroxy-1-(phenylmethyl)propyl]amino]carbonyl]-propyl]carbamic acid, (5-phenyl-2-oxazolyl)methyl ester] | 0.05 µM | 
96% |  |  | CC(C)[C@H](NC(=O)OCCO)C(=O)N[C@@H](Cc1ccccc1)[C@H](O)CNC[C@@H](O)[C@H](Cc1ccccc1)NC(=O)OC(C)(C)C (relative stereo) [Compound 218, [1R*,2S*(2S*,3R*)]-N-[3-[[3-[[(1,1-Dimethylethoxy)carbonyl]amino]-2-hydroxy-4-phenylbutyl]amino]-2-hydroxy-1-(phenylmethyl)propyl]-N^2-[(2-hydroxyethoxy)carbonyl]-L-valinamide] | 1.1 µM | 
99% |  |  | CC(C)(C)OC(=O)N[C@@H](Cc1ccccc1)[C@H](O)CNC[C@@H](O)[C@H](Cc1ccccc1)NC(=O)C(O)C(F)(F)F (single isomer, unassigned; isomer a) [Compound 271, [1S-[1R*,2S*(2S*,3R*)]]-[2-Hydroxy-1-(phenylmethyl)-3-[[2-hydroxy-4-phenyl-3-[(3,3,3-trifluoro-2-hydroxy-1-oxopropyl)amino]butyl]amino]-propyl]carbamic acid, 1,1-dimethylethyl ester (isomer A)] | 0.06 µM | 
99% |  |  | COC(=O)N[C@H](C(=O)N[C@@H](Cc1ccccc1)[C@H](O)CNC[C@@H](O)[C@H](Cc1ccccc1)NC(=O)OC(C)(C)CO)C(C)(C)C (relative stereo) [Compound 359, [1R*,2S*(2S*,3R*)]-N-[2-Hydroxy-3-[[2-hydroxy-3-[[(2-hydroxy-1,1-dimethylethoxy)-carbonyl]amino]-4-phenylbutyl]amino]-1-(phenylmethyl)propyl]-N^2-(2-methoxycarbonyl)-3-methyl-L-valinamide] | 0.56 µM | 
100% |  |  | CC(C)[C@H](NC(=O)[C@@H](N)Cc1ccccc1)C(=O)N[C@@H](Cc1ccccc1)[C@H](O)CNC[C@@H](O)[C@H](Cc1ccccc1)NC(=O)[C@@H](NC(=O)[C@@H](N)Cc1ccccc1)C(C)C [Compound 92, [S-(1R*,2S*)]-N,N'-[Iminobis[2-hydroxy-1-(phenylmethyl)-3,1-propanediyl]bis[N^2-(L-phenylalanyl)-L-valinamide[,trihydrochloride] | 39 µM | 
 | 100% |  | CC(C)(C)OC(=O)N[C@@H](Cc1ccccc1)[C@H](O)CNC[C@@H](O)[C@H](Cc1ccccc1)NC(=O)C(NC(=O)OCc1ccccc1)C(C)(C)CO (single isomer, unassigned; isomer b) [Compound 309, [1S-[1R*,2S*(2S*, 3R*)]]-[1-[[[3-[[(1,1-Dimethylethoxy)carbonyl]amino]-2-hydroxy-4-phenylbutyl]amino]-2-hydroxy-1-(phenylmethyl)-propyl]amino]carbonyl]-2-(hydroxymethyl)-2-methylpropyl]carbamic acid, phenylmethyl ester. isomer B] |  | 1.8 µM
99% |  |  | C[C@@H](O)[C@H](NC(=O)OCc1ccccc1)C(=O)N[C@@H](Cc1ccccc1)[C@H](O)CNC[C@@H](O)[C@H](Cc1ccccc1)NC(=O)OC(C)(C)C [Compound 100, [S-[1R*,2S*(2S*,3R*)]-N-[3-[[3-[[(1,1-Dimethylethoxy)carbonyl]amino]-2-hydroxy-4-phenylbutyl]amino]-2-hydroxy-1-(phenylmethyl)-propyl]-N^2 [(phenylmethoxy)carbonyl]-L-threoninamide] | 0.23 µM | 
100% |  |  | CC(C)[C@H](NC(=O)OCc1nc2ccccc2n1C)C(=O)N[C@@H](Cc1ccccc1)[C@H](O)CNC[C@@H](O)[C@H](Cc1ccccc1)NC(=O)OC(C)(C)C [Compound 170, [S-[1R*,2S*(2S*,3R*)]-N-[3-[[3-[[(1 l-Dimethylethoxy)carbonyl]amino]-2-hydroxy-4-phenylbutyl]amino]-2-hydroxy-1-(phenylmethyl)-propyl]-N^2-[[(1-methyl-1H-benzimidazol-2-yl)-methoxy]carbonyl]-L-valinamide] | 0.1 µM | 
100% |  |  | CC(C)(C)OC(=O)N[C@@H](Cc1ccccc1)[C@H](O)CNC[C@@H](O)[C@H](Cc1ccc(OCCc2ccccn2)cc1)NC(=O)OC(C)(C)CO [Compound 282, [1S-[1R*,2S*(2S*,3R*)]]-[3-[[3-[[(1,1-Dimethylethoxy)carbonyl]amino]-2-hydroxy-4-phenylbutyl]amino]-2-hydroxy-1-[[4-[2-(2-pyridinyl)ethoxy]phenyl]methyl]propyl]carbamic acid, 2-hydroxy-1,1-dimethylethyl ester] | 0.06 µM | 
 |  | 94% | CC(C)(C)OC(=O)N[C@@H](Cc1ccccc1)[C@H](O)CNC[C@@H](O)[C@H](Cc1ccccc1)NC(=O)[C@@](C)(O)C(C)(C)C [Compound 261, [1S-[1R*,2S*[2R*,3R*(R*)]]]-[3-[[3-[(2-Hydroxy-2,3,3-trimethyl-1-oxobutyl)amino]-2-hydroxy-4-phenylbutyl]amino]-2-hydroxy-1--(phenylmethyl)propyl]carbamic acid, 1,1-dimethylethyl ester] | 1.1 µM | 
41% |  |  | CC(C)(C)OC(=O)N[C@@H](Cc1ccccc1)[C@H](O)CNC[C@H](O)[C@H](Cc1ccccc1)NC(=O)OC(C)(C)C [Compound 5, [1S-[1R*,2S*(2R*,3R*)]]-[3-[[3-[[(1,1-Dimethylethoxy)carbonyl]amino]-2-hydroxy-4-phenylbutyl]amino]-2-hydroxy-1-(phenylmethyl)propyl]carbamic acid, 1,1-dimethylethyl ester] | 2.8 µM | 
99% |  |  | C[C@H](O)C(C)(C)OC(=O)N[C@@H](Cc1ccccc1)[C@H](O)CNC[C@@H](O)[C@H](Cc1ccccc1)NC(=O)OC(C)(C)C [Compound 232, [1S-(1R*,2S*),(R*)]-[Iminobis[2-hydroxy-1-(phenylmethyl)-3,1-propanediyl]]biscarbamic acid, 1,1-dimethylethyl 2-hydroxy-1,1-dimethylpropyl ester] | 0.05 µM | 
100% |  |  | CC(C)[C@H](NC(=O)OCc1nc2ccccc2o1)C(=O)N[C@@H](Cc1ccc(O)cc1)[C@H](O)CNC[C@@H](O)[C@H](Cc1ccccc1)NC(=O)OC(C)(C)C (relative stereo) [Compound 288, [1R*,2S*(2S*,3R*)]-N^2-[[(2-Benzoxazolyl)methoxy]carbonyl]-N-[3-[[3-[[(1.1-dimethylethoxy)carbonyl]amino]-2-hydroxy-4-phenylbutyl]amino]-2-hydroxy-1-[(4-hydroxyphenyl)methyl]propyl]-L-valinamide] | 0.47 µM | 
99% |  |  | CC(C)(C)OC(=O)N[C@@H](Cc1ccccc1)[C@H](O)CNC[C@@H](O)[C@H](Cc1ccc(OCc2nc3ccccc3o2)cc1)NC(=O)OC(C)(C)C [Compound 242, [1S-[1R*,2S*(2S*,3R*)]]-[3-[[4-[4-[(2-Benzoxazolyl)methoxy]phenyl]-3-[[(1,1-dimethylethoxy)carbonyl]amino]-2-hydroxybutyl]amino]-2-hydroxy-1-(phenylmethyl)propyl]carbamic acid, 1,1-dimethylethyl ester] | 0.11 µM | 
99% |  |  | CC(C)(C)OC(=O)N[C@@H](Cc1ccccc1)[C@H](O)CNC[C@@H](O)[C@H](Cc1ccccc1)NC(=O)C(NC(=O)OCc1ccccc1)C(F)(F)F (stereo partly drawn) [Compound 328, [1S-[1R*,2S*(2S*,3R*)]]-[2-[[3-[[3-[[(1,1-Dimethylethoxy)carbonyl]amino]-2-hydroxy-4-phenylbutyl]amino]-2-hydroxy-1-(phenylmethyl)propyl]amino]-2-oxo-1-(trifluoromethyl)ethyl]carbamic acid, phenylmethyl ester] | 0.54 µM | 
